Reference: patent US20090143434A1 (priority 2007, published 2009)

Legend:
hERG = molecular target: T1, hERG (Homo sapiens, UniProt Q12809); assay: voltage clamp currents in mammalian cells stably transfected with cloned ion channel cDNA, hERG; format: cell-based
T1 construct: expressed in transfected cells
Description: (§1) Nonlinear least squares fits of the current ratio data yielded the best fit value for the IC50 concentration. A positive control was included for each channel tested in the study.

hKv4.3 = molecular target: T2, hKv4.3 (Homo sapiens, UniProt Q9UK17); assay: voltage clamp currents in mammalian cells stably transfected with cloned ion channel cDNA, hKv4.3; format: cell-based
T2 construct: expressed in transfected cells
T2 sequence (Q9UK17 1-655): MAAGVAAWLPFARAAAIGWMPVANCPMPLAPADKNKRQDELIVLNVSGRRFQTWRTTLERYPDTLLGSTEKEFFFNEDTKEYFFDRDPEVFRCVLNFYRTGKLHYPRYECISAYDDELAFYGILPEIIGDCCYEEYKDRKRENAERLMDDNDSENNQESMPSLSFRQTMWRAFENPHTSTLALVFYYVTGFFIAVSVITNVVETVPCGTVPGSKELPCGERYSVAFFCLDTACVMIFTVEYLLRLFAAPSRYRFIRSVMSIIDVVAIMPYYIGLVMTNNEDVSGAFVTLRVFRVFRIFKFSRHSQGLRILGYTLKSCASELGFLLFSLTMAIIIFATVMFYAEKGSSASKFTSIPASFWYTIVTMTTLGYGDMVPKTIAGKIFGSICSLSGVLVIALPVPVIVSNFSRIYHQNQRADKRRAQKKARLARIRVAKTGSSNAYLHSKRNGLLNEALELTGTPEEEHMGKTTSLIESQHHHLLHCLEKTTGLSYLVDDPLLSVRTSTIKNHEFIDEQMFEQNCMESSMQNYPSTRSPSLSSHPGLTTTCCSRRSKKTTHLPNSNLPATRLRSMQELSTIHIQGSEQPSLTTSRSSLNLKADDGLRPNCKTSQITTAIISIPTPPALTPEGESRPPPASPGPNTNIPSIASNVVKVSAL
Description: as §1

hNav1.3 = molecular target: T3, hNav1.3 (Homo sapiens, UniProt Q9NY46); assay: voltage clamp currents in mammalian cells stably transfected with cloned ion channel cDNA, hNav1.3; format: cell-based
T3 construct: expressed in transfected cells
T3 sequence (Q9NY46 whole entry): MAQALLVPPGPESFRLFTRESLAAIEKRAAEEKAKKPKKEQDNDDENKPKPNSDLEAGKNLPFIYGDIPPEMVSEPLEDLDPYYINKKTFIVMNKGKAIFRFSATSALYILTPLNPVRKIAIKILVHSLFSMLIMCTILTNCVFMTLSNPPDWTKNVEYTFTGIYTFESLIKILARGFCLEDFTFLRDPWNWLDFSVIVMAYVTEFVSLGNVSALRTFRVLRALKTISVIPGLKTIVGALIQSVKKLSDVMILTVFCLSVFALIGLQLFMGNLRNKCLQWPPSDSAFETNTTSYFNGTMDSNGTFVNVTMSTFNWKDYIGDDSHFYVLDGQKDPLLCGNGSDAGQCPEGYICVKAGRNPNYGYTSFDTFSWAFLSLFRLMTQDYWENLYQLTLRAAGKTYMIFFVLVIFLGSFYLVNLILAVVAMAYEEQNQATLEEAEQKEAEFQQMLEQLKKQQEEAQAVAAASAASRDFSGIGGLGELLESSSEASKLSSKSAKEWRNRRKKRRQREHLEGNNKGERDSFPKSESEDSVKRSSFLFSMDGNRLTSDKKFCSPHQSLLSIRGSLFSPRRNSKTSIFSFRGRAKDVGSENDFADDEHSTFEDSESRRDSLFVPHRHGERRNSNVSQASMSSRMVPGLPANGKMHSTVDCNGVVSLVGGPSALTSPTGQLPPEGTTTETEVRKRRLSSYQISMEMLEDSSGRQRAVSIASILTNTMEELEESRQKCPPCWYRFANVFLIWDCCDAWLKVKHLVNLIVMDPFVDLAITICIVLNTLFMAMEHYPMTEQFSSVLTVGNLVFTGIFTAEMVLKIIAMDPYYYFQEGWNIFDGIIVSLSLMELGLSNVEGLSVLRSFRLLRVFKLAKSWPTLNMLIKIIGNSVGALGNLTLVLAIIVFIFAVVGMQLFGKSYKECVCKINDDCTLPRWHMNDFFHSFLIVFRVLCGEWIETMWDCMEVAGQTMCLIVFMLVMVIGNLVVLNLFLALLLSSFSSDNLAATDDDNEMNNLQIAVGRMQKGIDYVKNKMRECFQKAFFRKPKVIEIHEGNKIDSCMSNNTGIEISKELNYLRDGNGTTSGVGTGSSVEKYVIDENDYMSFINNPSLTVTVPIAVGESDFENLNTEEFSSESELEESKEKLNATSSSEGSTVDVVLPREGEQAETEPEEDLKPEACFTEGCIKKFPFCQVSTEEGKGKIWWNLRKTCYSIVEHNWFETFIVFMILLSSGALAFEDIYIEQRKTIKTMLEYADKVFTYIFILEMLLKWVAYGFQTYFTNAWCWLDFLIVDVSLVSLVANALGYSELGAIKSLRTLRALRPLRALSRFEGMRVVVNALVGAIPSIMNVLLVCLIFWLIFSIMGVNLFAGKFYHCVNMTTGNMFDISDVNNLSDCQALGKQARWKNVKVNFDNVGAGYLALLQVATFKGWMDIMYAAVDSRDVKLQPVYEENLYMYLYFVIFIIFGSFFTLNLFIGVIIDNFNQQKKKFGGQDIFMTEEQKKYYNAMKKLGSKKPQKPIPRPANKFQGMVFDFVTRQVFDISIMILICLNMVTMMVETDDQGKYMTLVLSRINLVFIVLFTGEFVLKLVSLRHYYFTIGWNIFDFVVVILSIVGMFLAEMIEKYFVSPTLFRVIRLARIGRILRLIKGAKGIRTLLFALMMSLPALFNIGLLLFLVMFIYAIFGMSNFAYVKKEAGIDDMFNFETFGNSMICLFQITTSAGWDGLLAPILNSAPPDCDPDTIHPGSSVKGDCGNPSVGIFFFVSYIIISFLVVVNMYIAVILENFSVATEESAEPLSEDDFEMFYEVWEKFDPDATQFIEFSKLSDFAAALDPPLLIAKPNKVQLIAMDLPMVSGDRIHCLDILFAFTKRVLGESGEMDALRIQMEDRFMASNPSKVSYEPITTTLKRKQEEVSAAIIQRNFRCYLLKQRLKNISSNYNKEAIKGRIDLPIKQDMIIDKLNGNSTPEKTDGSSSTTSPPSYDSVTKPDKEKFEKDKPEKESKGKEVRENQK
Description: as §1

hCav1.2 = hCav1.2 (Homo sapiens, UniProt Q13936); assay: voltage clamp currents in mammalian cells stably transfected with cloned ion channel cDNA, hCav1.2; format: cell-based
Description: as §1

hNav1.5 = hNav1.5 (Homo sapiens, UniProt Q14524); assay: voltage clamp currents in mammalian cells stably transfected with cloned ion channel cDNA, hNav1.5; format: cell-based
Chain of hNav1.5 (Q14524 whole entry): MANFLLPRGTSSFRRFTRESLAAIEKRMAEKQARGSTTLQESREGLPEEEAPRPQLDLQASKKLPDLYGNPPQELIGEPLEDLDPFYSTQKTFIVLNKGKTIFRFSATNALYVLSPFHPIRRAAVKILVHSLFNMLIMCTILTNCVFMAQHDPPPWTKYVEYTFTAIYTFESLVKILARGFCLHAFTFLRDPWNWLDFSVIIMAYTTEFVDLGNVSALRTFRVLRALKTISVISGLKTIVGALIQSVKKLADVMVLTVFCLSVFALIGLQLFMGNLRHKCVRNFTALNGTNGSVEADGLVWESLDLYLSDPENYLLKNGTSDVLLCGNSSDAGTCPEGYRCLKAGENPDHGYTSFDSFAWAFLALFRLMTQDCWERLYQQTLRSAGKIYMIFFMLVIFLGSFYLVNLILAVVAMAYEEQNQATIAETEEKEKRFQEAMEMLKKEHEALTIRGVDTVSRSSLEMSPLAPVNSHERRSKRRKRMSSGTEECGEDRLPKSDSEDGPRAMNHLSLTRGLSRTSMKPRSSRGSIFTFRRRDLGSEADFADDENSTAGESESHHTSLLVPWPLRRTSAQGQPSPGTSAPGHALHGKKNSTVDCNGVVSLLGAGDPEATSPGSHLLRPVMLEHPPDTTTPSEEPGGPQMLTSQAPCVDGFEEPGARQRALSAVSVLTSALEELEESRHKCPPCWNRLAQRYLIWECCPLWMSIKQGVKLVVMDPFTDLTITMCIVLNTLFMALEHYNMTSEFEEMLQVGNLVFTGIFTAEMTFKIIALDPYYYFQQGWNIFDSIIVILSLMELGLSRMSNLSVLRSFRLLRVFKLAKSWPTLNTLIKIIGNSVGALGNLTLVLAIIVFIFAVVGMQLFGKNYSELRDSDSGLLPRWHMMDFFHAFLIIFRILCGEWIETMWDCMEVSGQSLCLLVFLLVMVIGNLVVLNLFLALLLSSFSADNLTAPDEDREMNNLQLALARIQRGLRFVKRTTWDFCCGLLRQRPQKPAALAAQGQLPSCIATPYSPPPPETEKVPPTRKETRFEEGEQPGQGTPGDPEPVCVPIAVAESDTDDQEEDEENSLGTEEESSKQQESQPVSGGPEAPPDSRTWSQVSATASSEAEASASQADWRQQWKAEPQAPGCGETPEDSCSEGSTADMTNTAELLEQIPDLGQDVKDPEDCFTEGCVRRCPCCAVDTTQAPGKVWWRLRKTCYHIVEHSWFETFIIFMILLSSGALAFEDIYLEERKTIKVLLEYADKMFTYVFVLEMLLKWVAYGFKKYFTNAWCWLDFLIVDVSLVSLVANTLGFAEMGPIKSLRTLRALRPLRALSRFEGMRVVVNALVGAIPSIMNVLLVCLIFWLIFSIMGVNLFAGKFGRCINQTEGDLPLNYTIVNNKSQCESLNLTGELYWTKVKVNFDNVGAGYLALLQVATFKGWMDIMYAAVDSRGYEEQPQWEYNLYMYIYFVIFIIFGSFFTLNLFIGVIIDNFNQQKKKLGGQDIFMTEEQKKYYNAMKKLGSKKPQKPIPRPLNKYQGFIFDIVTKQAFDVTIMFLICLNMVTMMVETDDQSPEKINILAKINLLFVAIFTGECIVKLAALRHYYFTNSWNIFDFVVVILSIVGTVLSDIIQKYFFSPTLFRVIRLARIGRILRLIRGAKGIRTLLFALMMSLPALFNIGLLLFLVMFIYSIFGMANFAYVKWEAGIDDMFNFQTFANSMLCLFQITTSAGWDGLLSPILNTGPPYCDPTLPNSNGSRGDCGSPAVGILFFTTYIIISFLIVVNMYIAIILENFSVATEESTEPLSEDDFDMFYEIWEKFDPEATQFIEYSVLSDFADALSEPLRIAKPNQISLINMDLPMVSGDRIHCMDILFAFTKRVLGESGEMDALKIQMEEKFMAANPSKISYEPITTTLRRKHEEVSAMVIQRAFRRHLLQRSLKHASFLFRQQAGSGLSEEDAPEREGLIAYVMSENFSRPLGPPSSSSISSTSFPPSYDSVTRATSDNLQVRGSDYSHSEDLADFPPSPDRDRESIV
Description: as §1

hCav3.2 = hCav3.2 (Homo sapiens, UniProt O95180); assay: cell-based
Description: as §1

hKv1.3 = hKv1.3 (Homo sapiens, UniProt P22001); assay: voltage clamp currents in mammalian cells stably transfected with cloned ion channel cDNA, hKv1.3; format: cell-based
Chain of hKv1.3 (P22001 whole entry): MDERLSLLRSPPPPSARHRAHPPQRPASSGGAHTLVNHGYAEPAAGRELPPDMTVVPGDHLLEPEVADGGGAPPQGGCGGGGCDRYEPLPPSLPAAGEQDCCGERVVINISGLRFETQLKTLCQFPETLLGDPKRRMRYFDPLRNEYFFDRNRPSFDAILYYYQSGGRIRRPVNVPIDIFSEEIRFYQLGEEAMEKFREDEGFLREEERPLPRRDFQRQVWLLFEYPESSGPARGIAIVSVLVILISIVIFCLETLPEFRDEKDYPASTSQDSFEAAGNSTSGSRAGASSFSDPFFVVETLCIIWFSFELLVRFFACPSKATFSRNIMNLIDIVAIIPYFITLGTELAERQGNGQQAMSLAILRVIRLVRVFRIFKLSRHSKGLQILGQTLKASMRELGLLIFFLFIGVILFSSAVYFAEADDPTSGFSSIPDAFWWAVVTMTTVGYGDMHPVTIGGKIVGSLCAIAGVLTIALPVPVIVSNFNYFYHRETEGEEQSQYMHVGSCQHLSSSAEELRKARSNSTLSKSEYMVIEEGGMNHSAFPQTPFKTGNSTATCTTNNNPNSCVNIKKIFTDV
Description: as §1

hHCN4 = molecular target: T4, hHCN4 (Homo sapiens, UniProt Q9Y3Q4); assay: voltage clamp currents in mammalian cells stably transfected with cloned ion channel cDNA, hHCN4; format: cell-based
T4 construct: expressed in transfected cells
T4 sequence (Q9Y3Q4 1-1203): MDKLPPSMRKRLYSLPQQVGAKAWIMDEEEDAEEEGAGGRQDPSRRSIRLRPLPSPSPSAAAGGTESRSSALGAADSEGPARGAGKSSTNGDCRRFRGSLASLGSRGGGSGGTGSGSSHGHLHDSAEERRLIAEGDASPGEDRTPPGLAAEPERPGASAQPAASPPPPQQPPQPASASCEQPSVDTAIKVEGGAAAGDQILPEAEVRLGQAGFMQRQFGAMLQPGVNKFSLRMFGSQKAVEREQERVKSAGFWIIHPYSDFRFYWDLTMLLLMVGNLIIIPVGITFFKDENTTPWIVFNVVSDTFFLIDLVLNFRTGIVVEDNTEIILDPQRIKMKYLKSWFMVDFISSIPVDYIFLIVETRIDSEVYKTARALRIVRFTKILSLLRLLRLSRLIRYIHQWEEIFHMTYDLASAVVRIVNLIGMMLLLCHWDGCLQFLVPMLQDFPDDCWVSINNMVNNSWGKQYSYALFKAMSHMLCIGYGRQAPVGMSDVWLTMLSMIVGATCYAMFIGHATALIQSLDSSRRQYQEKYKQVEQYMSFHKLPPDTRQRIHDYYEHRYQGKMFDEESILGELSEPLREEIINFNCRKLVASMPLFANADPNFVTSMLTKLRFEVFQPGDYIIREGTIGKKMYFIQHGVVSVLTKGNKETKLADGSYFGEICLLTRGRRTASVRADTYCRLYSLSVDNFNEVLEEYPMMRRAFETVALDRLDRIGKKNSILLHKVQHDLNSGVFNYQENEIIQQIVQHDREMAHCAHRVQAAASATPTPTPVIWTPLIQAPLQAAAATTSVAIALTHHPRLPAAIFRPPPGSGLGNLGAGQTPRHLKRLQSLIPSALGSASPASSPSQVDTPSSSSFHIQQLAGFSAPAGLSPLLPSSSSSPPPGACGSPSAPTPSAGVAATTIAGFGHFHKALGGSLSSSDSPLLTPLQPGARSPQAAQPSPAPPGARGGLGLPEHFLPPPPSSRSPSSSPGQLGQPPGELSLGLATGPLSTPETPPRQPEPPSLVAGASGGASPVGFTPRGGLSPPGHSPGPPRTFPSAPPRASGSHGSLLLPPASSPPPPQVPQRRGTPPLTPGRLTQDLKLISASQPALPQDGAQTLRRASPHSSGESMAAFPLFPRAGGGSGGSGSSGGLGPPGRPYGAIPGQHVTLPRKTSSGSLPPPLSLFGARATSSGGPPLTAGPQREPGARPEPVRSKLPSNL
Description: as §1

hKv1.1 = molecular target: T5, hKv1.1 (Homo sapiens, UniProt Q09470); assay: voltage clamp currents in mammalian cells stably transfected with cloned ion channel cDNA, hKv1.1; format: cell-based
T5 construct: expressed in transfected cells
T5 sequence (Q09470 whole entry): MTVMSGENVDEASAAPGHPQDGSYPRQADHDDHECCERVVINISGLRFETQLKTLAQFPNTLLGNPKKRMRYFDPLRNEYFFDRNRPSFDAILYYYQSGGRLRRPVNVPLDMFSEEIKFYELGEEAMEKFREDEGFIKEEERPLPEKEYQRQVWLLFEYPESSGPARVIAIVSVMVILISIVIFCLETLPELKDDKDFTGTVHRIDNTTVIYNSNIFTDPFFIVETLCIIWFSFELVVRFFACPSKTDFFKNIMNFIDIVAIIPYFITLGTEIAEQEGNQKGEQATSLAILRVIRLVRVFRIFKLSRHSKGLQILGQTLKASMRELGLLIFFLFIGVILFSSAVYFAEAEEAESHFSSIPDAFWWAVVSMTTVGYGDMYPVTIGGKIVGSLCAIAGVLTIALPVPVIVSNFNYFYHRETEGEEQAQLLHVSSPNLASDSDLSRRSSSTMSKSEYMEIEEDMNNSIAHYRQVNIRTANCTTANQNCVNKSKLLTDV
Description: as §1

[1] = 0.1 Hz, read-out: Estimated IC50 at 0.1 Hz

- % Block at 10 μM/0.1 Hz (hKv4.3; 10 μM): 0.5%
- IC50 (hKv4.3; [1]): 1990 µM
- % Block at 10 μM/0.1 Hz (hNav1.3; 10 μM): 4.6%
- IC50 (hNav1.3; [1]): 207 µM
- IC50 (hCav3.2; Estimated IC50 at 0.1 Hz, 0.1 Hz): 10.2 µM
- IC50 (hCav3.2; Estimated IC50 at 3 Hz, 3 Hz): 1.22 µM
- % Block at 10 μM/0.1 Hz (hKv1.3; 10 μM): 17.6%
- IC50 (hKv1.3; [1]): 46.8 µM
- % Block at 10 μM/0.1 Hz (hHCN4; 10 μM): 20.3%
- IC50 (hHCN4; [1]): 30.3 µM
- % Block at 10 μM/0.1 Hz (hKv1.1; 10 μM): 1.9%
- IC50 (hKv1.1; [1]): 516 µM
SMILES: O=c1[nH]c2ccccc2n1CCCN1CCC(n2c(=O)[nH]c3cc(Cl)ccc32)CC1 [domperidone, 1,3-dihydro-5-chloro-1-(1-(3-(2,3-dihydro-2-oxo-1H-benzimidazol-1-yl)propyl)-4-piperidinyl)-2H-benzimidazol-2-one]
- % Block at 1 μM/3 Hz (hERG; 1 μM, 3 Hz): 98.0%
- % Block at 10 μM/0.1 Hz (hERG; 10 μM, 0.1 Hz): 95.5%
- % Block at 1 μM/3 Hz (hCav1.2; 1 μM, 3 Hz): 49.6%
- % Block at 10 μM/0.1 Hz (hCav1.2; 10 μM, 0.1 Hz): 9%
- % Block at 1 μM/3 Hz (hNav1.5; 1 μM, 3 Hz): 23.7%
- % Block at 10 μM/0.1 Hz (hNav1.5; 10 μM, 0.1 Hz): 37.3%
